Experiment [1] in a line: Inhibition of FPTase at 10 ug/mL.
Experiment [2] has as its system HUVEC. In words: Antiangiogenic activity in HUVEC assessed as inhibition of bFGF-induced tube formation at 10 ug/mL. The format is functional, cell-based. The note with it: Homo sapiens.
Experiment [3] in a line: Inhibition of FPTase up to 20 ug/mL.
The subject of experiment [4] is HUVEC. Description: Antiangiogenic activity in HUVEC assessed as inhibition of bFGF-induced tube formation up to 20 ug/mL. It counts as functional, cell-based. The conditions noted are these: Homo sapiens.
The next experiment has as its system K562. Description: Cytotoxicity against human K562 cells. The format is functional. The conditions noted are these: read-out: LC50 (the source's name).

Structures are written as SMILES. In brackets after ≈: the same amount, converted by molar mass. Activity calls are given as the source filed them. The rule behind the calls is not given here.

One may read the inhibition as the drop in the measured response relative to a control, in per cent. A low value points to little suppression.

Regarding `C=C1CC[C@@H]2O[C@@]2(C)CC[C@@H]2[C@H](CCC=C(C)C)C(=O)OC[C@@H]12`, the result (in experiment [1]; in the experiment with HUVEC [2]; in experiment [3]; in the experiment with HUVEC [4]) was inactive.
On to `C=C=CCC(OC(C)=O)C1=CO[C@H](OC(C)=O)[C@H]2C(=C)CC[C@@H]3O[C@@]3(C)CC[C@H]12` (stereo partly specified), for which the inhibition in experiment [1] was 82%. In addition, in the experiment with HUVEC [2], the result was Active.
With `C=C1CC/C=C(\C)CC[C@@H]2/C(=C\C=C\C(C)(C)O)C(=O)OC[C@@H]12` [9-DEOXYXENIOLIDE A], the CC50 in the experiment with K562 is 0.04 µg/mL (≈ 0.126 µM). The result (in experiment [1]; with HUVEC [2]; in experiment [3]; in the experiment with HUVEC [4]) was inactive.
For `C=C1CC[C@@H]2O[C@@]2(C)CC[C@@H]2[C@H](CC/C=C(\C)C(=O)OC)C(=O)OC[C@@H]12` [ACALYCIXENIOLIDE H], the CC50 in the experiment with K562 is 3.9 µg/mL (≈ 10.8 µM). The result (in experiment [1]; with HUVEC [2]; in experiment [3]; in the experiment with HUVEC [4]) was inactive.
For `C=C1CC/C=C(\C)CC[C@@H]2[C@H](CC/C=C(\C)CO)C(=O)OC[C@@H]12` [ACALYCIXENIOLIDE I], the CC50 in the experiment with K562 is 1.2 µg/mL (≈ 3.77 µM). In addition, the outcome (in experiment [1]; in the experiment with HUVEC [2]; in experiment [3]; with HUVEC [4]) was inactive.
Regarding `C=C1CC/C=C(\C)CC[C@@H]2[C@H](C/C=C/C(C)(C)O)C(=O)OC[C@@H]12` [ACALYCIXENIOLIDE J], the CC50 in the experiment on K562 came to 2 µg/mL (≈ 6.28 µM). In addition, the result (in experiment [1]; in the experiment with HUVEC [2]; in experiment [3]; in the experiment with HUVEC [4]) was inactive.
As for `C=C1CC/C=C(\C)CC[C@@H]2[C@H](CC/C=C\CO)C(=O)OC[C@@H]12` [ACALYCIXENIOLIDE K], the CC50 in the experiment on K562 was found to be 1.8 µg/mL (≈ 5.91 µM). Besides, the outcome (in experiment [1]; with HUVEC [2]; in experiment [3]; in the experiment with HUVEC [4]) was inactive.
Consider `C=C1CC/C=C(\C)CC[C@@H]2[C@H](CC/C=C/CO)C(=O)OC[C@@H]12` [ACALYCIXENIOLIDE L], for which the CC50 in the experiment on K562 came to 1.5 µg/mL (≈ 4.93 µM). Also, the outcome (in experiment [1]; with HUVEC [2]; in experiment [3]; in the experiment with HUVEC [4]) was inactive.

The values above are taken from ChEMBL document CHEMBL1150824, “New xenicane diterpenoids from the gorgonian Acalycigorgia inermis” (2001).
